Data on 39 compounds can be found in patent US9562034B2, “Endoparasite control agent” (The University of Tokyo, priority 2012, dated 2017).

SMILES strings stand for the structures. Like-named read-outs stand apart in the source and are kept apart here.

Test [1] relates to Haemonchus contortus L1-stage larvae. The test can be described thus: In vivo activity test on Haemonchus nematode (motor ability of L1-stage larvae, 96-well plate). The settings on record: twenty L1-stage larvae per well, 27° C./95% RH for 4 days, DMSO 0.78% (v/v). The protocol:
In Vivo Activity Test on Haemonchus Nematode
In a 96-well plate, twenty L1-stage larvae (Haemonchus contortus) per well were maintained so that they could freely move, and solutions of compounds of the present invention dissolved at predetermined concentrations in DMSO (the final concentration of DMSO was 0.78% (v/v)) were added at 0.5 μl/well each. The plate was kept under the conditions of 27° C./95% RH for 4 days. The motor ability of the larvae was examined and the concentration required for 50% inhibition of the motor ability (EC50) was determined. Based on the EC50 value, the activity against the Haemonchus nematode was graded according to the criterion shown below.
• A: The EC50 value is lower than 0.5 ppm. • B: The EC50 value is 0.5 ppm or higher but lower than 5 ppm. • C: The EC50 value is 5 ppm or higher.

Test [2] deals with T1, Ascaris suum succinate-ubiquinone reductase (mitochondrial complex II) (Ascaris suum, UniProt O44074+P92506+P92507).
T1 construct: from tissue; host or cells: mitochondria from adult Ascaris suum muscle
The test can be described thus: In vitro inhibitory activity on Ascaris suum succinate-ubiquinone reductase (mitochondrial complex II). It counts as biochemical. The protocol: In Vitro Measurement of Inhibitory Activity on Ascaris suum Succinate-Ubiquinone Reductase (Mitochondrial Complex II)
To a solution containing 50 mM potassium phosphate (pH 7.4) and 0.1% (w/v) sucrose monolaurate, an electron acceptor ubiquinone-2 (UQ2) was added at a final concentration of 60 μM, and the mixture was allowed to stand at 25° C. for 20 minutes. To this, potassium cyanide (final concentration: 2 mM) and mitochondria prepared from adult Ascaris suum muscle were added, and thorough mixing was done. To aliquots of the mixture, an inhibitor to be tested was added at various concentrations, and the mixtures were allowed to stand at 25° C. for 3 minutes. The enzymatic reaction was initiated by addition of potassium succinate (final concentration: 10 mM).

[3] abbreviates: mitochondria from adult Ascaris suum muscle, UQ2 60 μM, potassium succinate 10 mM, 25° C., absorbance at 278 nm, read-out: Ascaris suum IC50 value (A).

T1 sequence (O44074 22-282): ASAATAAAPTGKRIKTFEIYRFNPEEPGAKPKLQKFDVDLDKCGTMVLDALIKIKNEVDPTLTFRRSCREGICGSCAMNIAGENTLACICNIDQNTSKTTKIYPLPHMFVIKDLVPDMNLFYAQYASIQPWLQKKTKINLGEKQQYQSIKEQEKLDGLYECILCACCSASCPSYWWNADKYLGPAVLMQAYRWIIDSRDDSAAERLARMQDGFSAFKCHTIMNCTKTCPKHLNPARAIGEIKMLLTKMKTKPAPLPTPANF
T1 sequence (P92506 32-188): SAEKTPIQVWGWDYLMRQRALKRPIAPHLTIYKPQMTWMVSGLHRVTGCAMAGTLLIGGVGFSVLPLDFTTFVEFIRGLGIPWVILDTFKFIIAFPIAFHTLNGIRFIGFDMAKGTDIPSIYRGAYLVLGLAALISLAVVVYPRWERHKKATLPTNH
T1 sequence (P92507 26-156): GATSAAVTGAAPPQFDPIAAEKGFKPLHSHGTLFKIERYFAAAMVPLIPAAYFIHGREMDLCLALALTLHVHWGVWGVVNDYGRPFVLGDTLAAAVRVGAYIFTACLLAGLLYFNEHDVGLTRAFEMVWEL
T1 sequence (Q33862 19-645 partner): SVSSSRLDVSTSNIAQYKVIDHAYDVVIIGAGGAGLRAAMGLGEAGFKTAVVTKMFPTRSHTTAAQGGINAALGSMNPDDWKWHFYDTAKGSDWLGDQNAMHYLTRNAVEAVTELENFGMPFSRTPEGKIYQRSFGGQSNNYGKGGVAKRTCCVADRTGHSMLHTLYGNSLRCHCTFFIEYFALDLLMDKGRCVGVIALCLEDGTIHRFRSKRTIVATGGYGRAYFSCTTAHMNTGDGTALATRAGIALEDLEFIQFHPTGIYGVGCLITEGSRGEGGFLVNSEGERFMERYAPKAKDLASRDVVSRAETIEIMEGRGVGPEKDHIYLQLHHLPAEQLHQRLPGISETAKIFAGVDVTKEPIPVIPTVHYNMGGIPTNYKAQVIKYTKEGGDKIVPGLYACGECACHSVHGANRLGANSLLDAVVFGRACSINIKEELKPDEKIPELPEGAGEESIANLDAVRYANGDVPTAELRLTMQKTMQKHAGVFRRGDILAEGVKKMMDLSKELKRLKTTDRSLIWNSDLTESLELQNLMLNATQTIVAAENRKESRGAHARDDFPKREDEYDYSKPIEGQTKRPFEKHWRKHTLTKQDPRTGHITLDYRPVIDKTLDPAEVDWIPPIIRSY

In the case of `O=C(NCCc1ccc(Oc2ncc(C(F)(F)F)cc2Cl)cc1Cl)c1nccnc1C(F)(F)F` [Compound 21], the “Grade (EC50, concentration required for 50% inhibition of the motor ability)” value in test [1] was “A (The EC50 value is lower than 0.5 ppm.)”. Besides, the IC50 in test [2] (setting [3]) was found to be 1.3 nM.
On the same counts, the results for `O=C(NCCc1ncc(C(F)(F)F)cc1Cl)c1nccnc1C(F)(F)F` [Compound 3] are “A (The EC50 value is lower than 0.5 ppm.)” and 9.4 nM.
On the same counts, the results for `O=C(NCCc1cc(F)c(Cl)cc1F)c1cccnc1Cl` [Compound 25] are “A (The EC50 value is lower than 0.5 ppm.)” and 18 nM.
On the same counts, the results for `O=C(NCCc1cc(F)c(Cl)cc1Cl)c1nccnc1C(F)(F)F` [Compound 28] are “A (The EC50 value is lower than 0.5 ppm.)” and 1.3 nM.
As to `O=C(NCCc1ccc(Cl)cc1Cl)c1cnccc1C(F)(F)F` [Compound 31], in test [2] (setting [3]), the IC50 is 42 nM.
On to `C[C@@H](Cn1nc(C(F)(F)F)c(Cl)c1Cl)NC(=O)c1nccnc1C(F)(F)F` [Compound 43], for which the IC50 in test [2] (setting [3]) was found to be 9.9 nM.
Take `O=C(NCCc1ccc(F)cc1Cl)c1nccnc1C(F)(F)F` [Compound 11]: in test [2] (setting [3]), the IC50 is 3.4 nM.
For `O=C(NCCc1ccc(C(F)(F)F)cc1Cl)c1nccnc1C(F)(F)F` [Compound 19], the “Grade (EC50, concentration required for 50% inhibition of the motor ability)” value in test [1] is “A (The EC50 value is lower than 0.5 ppm.)”. Further, in test [2] (setting [3]), the IC50 turned out to be 1.3 nM.
For the compound `CC(Cc1ccc(Cl)cc1Cl)NC(=O)c1nccnc1C(F)(F)F` (stereo not drawn) [Compound 15], in test [1], the “Grade (EC50, concentration required for 50% inhibition of the motor ability)” value is “A (The EC50 value is lower than 0.5 ppm.)”.
`O=C(NCCc1ncc(C(F)(F)F)cc1Cl)c1cccnc1Cl` [Compound 1]: the “Grade (EC50, concentration required for 50% inhibition of the motor ability)” value in test [1] is “A (The EC50 value is lower than 0.5 ppm.)”. Besides, in test [2] (setting [3]), the IC50 was 47 nM.
`Cc1nccnc1C(=O)NCCc1ccc(-c2ccc(OC(F)(F)F)cc2)cc1` [Compound 48]: the “Grade (EC50, concentration required for 50% inhibition of the motor ability)” value in test [1] was “A (The EC50 value is lower than 0.5 ppm.)”.
With `O=C(NCCc1ccc(Cl)cc1F)c1nccnc1C(F)(F)F` [Compound 20], the IC50 in test [2] (setting [3]) worked out at 4.9 nM.
Take `O=C(NCC1(c2ccc(Cl)cc2Cl)CC1)c1nccnc1Cl` [Compound 13]: in test [1], the “Grade (EC50, concentration required for 50% inhibition of the motor ability)” value is reported as “A (The EC50 value is lower than 0.5 ppm.)”. Moreover, the IC50 in test [2] (setting [3]) turned out to be 2.7 nM.
On the same counts, the results for `O=C(NCCc1ccc(Cl)cc1Cl)c1cccnc1C(F)(F)F` [Compound 6] are “A (The EC50 value is lower than 0.5 ppm.)” and 4.4 nM.
For the compound `Cc1c(C(=O)NCCc2ccc(Cl)cc2Cl)c(C(F)(F)F)nn1C` [Compound 35], in test [1], the “Grade (EC50, concentration required for 50% inhibition of the motor ability)” value was “B (The EC50 value is 0.5 ppm or higher but lower than 5 ppm.)”.
`CC(Cc1ccc(Cl)cc1Cl)NC(=O)c1nccnc1I` (stereo not drawn) [Compound 47] registered an IC50 in test [2] of 2.3 nM.
Consider `Cc1cccnc1C(=O)NCCc1ccc(Cl)cc1Cl` [Compound 30], for which the IC50 in test [2] (setting [3]) worked out at 6 nM.
For `O=C(NCCc1ccc(Cl)cc1Cl)c1sccc1C(F)(F)F` [Compound 7], the “Grade (EC50, concentration required for 50% inhibition of the motor ability)” value in test [1] is on record as “A (The EC50 value is lower than 0.5 ppm.)”. In test [2] (setting [3]), the IC50 came to 1.1 nM.
Regarding `CC(Cc1ccc(Cl)cc1Cl)NC(=O)c1nccnc1Cl` (stereo not drawn) [Compound 14], the IC50 in test [2] (setting [3]) was determined as 3.3 nM.
Turning to `Cc1nccnc1C(=O)NCCc1ccc(-c2ccc(OC(F)(F)F)cc2)cc1` [Compound 5], the IC50 in test [2] (setting [3]) came to 26 nM.
As for `O=C(NCCc1cc(F)c(Cl)cc1F)c1nccnc1C(F)(F)F` [Compound 24], the “Grade (EC50, concentration required for 50% inhibition of the motor ability)” value in test [1] is “A (The EC50 value is lower than 0.5 ppm.)”. Also, in test [2] (setting [3]), the IC50 came out at 2 nM.
For the compound `O=C(NCCc1ccc(-c2ccc(OC(F)(F)F)cc2)cc1Cl)c1nccnc1C(F)(F)F` [Compound 4], in test [2] (setting [3]), the IC50 was 1.3 nM.
Turning to `Cc1occc1C(=O)NCCc1ccc(Cl)cc1Cl` [Compound 50], the IC50 in test [2] (setting [3]) worked out at 1.6 nM.
Still for that read-out and setting: next, `O=C(NCCc1cc(F)c(F)cc1Cl)c1nccnc1C(F)(F)F` [Compound 27]: 2.2 nM; `C[C@@H](COc1ncc(C(F)(F)F)cc1Cl)NC(=O)c1cccnc1Cl` [Compound 44]: 20 nM.
In the case of `Cc1nc(C(F)(F)F)c(C(=O)NCCc2ccc(Cl)cc2Cl)s1` [Compound 38], in test [1], the “Grade (EC50, concentration required for 50% inhibition of the motor ability)” value is “B (The EC50 value is 0.5 ppm or higher but lower than 5 ppm.)”.
Regarding `Nc1nc(C(F)(F)F)c(C(=O)NCCc2ccc(Cl)cc2Cl)s1` [Compound 2], the IC50 in test [2] (setting [3]) stood at 57 nM.
With `O=C(NCCc1ccc(Cl)cc1Cl)C1=C(C(F)(F)F)OCCS1` [Compound 33], the “Grade (EC50, concentration required for 50% inhibition of the motor ability)” value in test [1] is “A (The EC50 value is lower than 0.5 ppm.)”. Inhibition in test [2] was half-maximal at 7.3 nM (IC50).
Take `O=C(NCC1(c2ccc(Cl)cc2Cl)CC1)c1nccnc1C(F)(F)F` [Compound 16]: the “Grade (EC50, concentration required for 50% inhibition of the motor ability)” value in test [1] is given as “A (The EC50 value is lower than 0.5 ppm.)”. In addition, the IC50 in test [2] (setting [3]) came to 1.5 nM.
Consider `O=C(NCCc1ccc(Cl)cc1Cl)c1nccnc1C(F)(F)F` [Compound 9], for which the “Grade (EC50, concentration required for 50% inhibition of the motor ability)” value in test [1] is “A (The EC50 value is lower than 0.5 ppm.)”.
As for `CC(Cc1cc(F)c(F)cc1Cl)NC(=O)c1nccnc1C(F)(F)F` (stereo not drawn) [Compound 26], the IC50 in test [2] (setting [3]) turned out to be 2.9 nM.
With `O=C(NCCc1cc(F)c(Cl)cc1Cl)c1cccnc1Cl` [Compound 29], in test [2] (setting [3]), the IC50 came out at 6.7 nM.
As for `O=C(NCCc1ccc(Oc2ncc(C(F)(F)F)cc2Cl)cc1Cl)c1cccnc1Cl` [Compound 22], in test [1], the “Grade (EC50, concentration required for 50% inhibition of the motor ability)” value was “A (The EC50 value is lower than 0.5 ppm.)”. In addition, the IC50 in test [2] (setting [3]) turned out to be 1.7 nM.
For the compound `C[C@@H](Cn1nc(Br)c(Br)c1Br)NC(=O)c1cccnc1C(F)(F)F` [Compound 42], the IC50 in test [2] (setting [3]) worked out at 13 nM.
`O=C(NC1(Cc2ccc(Cl)cc2Cl)CC1)c1nccnc1C(F)(F)F` [Compound 18]: in test [2] (setting [3]), the IC50 was 3.1 nM.
With `CC(Cc1ccc(Cl)cc1F)NC(=O)c1nccnc1Cl` (stereo not drawn) [Compound 23], the “Grade (EC50, concentration required for 50% inhibition of the motor ability)” value in test [1] is “A (The EC50 value is lower than 0.5 ppm.)”. The IC50 in test [2] (setting [3]) worked out at 10 nM.
As to `O=C(NCCc1ccc(-c2ccc(OC(F)(F)F)cc2)cc1F)c1nccnc1Cl` [Compound 17], in test [1], the “Grade (EC50, concentration required for 50% inhibition of the motor ability)” value was “A (The EC50 value is lower than 0.5 ppm.)”. The compound also showed an IC50 in test [2] of 2 nM.
Regarding `C[C@@H](Cn1nc(Br)c(Br)c1Br)NC(=O)c1cccnc1Cl` [Compound 41], the IC50 in test [2] (setting [3]) came to 42 nM.
As to `O=C(NCCc1ccc(Oc2ccc(C(F)(F)F)cn2)cc1Cl)c1cccnc1Cl` [Compound 45], the IC50 in test [2] (setting [3]) is 4.5 nM.

Broadly, the IC50 is the concentration at which inhibition is half-maximal.
